Measurements: patent US20050043239A1, “Methods of inhibiting immune responses stimulated by an endogenous factor” (priority 2003, published 2005)
Entries after “also recorded” stand apart in the source; their conditions may differ. One block for each molecule: values may come before it.

Legend:
neutrophils [1] = assay: Superoxide production by activated neutrophils (WST-1); assay type: cell-based; conditions: no inhibitor; read-out: agonist concentration representing half-maximal production of superoxide anions
neutrophils [2] = assay: Neutrophil elastase release (exocytosis) assay; assay type: cell-based; conditions: no inhibitor; read-out: agonist concentration representing half-maximal release of elastase
human neutrophils = assay: Neutrophil chemotaxis, Transwell assay; assay type: cell-based; conditions: no inhibitor, read-out: concentration of chemoattractant necessary to support half-maximal migration
Description: It is known that distinct signal transduction pathways are utilized by host-derived versus bacteria-produced chemoattractants [Heit, J. Cell Biol., 159:91-102 (2002)]. To determine whether specific chemotactic agents preferentially rely on PI3Kδ in order to promote directed cell migration, the effect of inhibiting PI3Kδ on the ability of neutrophils to undergo chemotaxis was examined using a Transwell™ assay system.
Neutrophil chemotaxis experiments were conducted as described [Roth et al., J. Immunol. Methods, 188:97-116 (1995)]. Briefly, purified human neutrophils were incubated with DMSO (0.3% v/v) or an inhibitor in accordance with the invention reconstituted in DMSO (0.3%) for 20 minutes at room temperature. Cells were added to bare filter inserts (Transwell™ 5 μm pore size; Corning Costar, Cambridge, Mass.), that were placed into wells containing chemoattractants or control medium of a Ultra low 24-well cluster plate, and incubated for 1 hour at 37° C. in a 5% CO2 humidified environment. The number of neutrophils that migrated into the bottom well was determined by FACScan (Becton Dickinson, San Jose, Calif.). Results were expressed as percent neutrophil migration relative to the control (medium without inhibitor).
Dose response curves were generated to determine the concentrations of each chemoattractant, both host and bacterial-derived, necessary to support half-maximal migration. […] Methods, 137:37-46 (1991)].

Listeria monocytogenes = assay: Clearance of systemic Listeria monocytogenes infection; assay type: in vivo; conditions: for Log colony count/gm spleen tissue in dexamethasone group (2 mg/kg): 72 hours post-infection, Lewis rats
Description: Two separate bacterial clearance studies were conducted. […] Colony counts (CFU) per gram of spleen tissues were determined at necropsy, 72 hours post-infection and expressed as the log of the colony count (e.g., 100000 CFU=log 5) per gram of tissue. Colony count measurements provide an indication of the extent of phagocytosis of bacteria by splenic neutrophils and macrophages.

EC50 (neutrophils [2]): 2 nM
EC50 (human neutrophils): 0.25 nM
Molecule: CCCCC/C=C\C[C@@H](O)/C=C/C=C/C=C\[C@@H](O)CCCC(=O)O [LTB4, leukotriene B4]
EC50 (neutrophils [1]): 2 nM

Molecule: C[C@@H]1C[C@H]2[C@@H]3CCC4=CC(=O)C=C[C@]4(C)[C@@]3(F)[C@@H](O)C[C@]2(C)[C@@]1(O)C(=O)CO [dexamethasone]
Log colony count/gm spleen tissue in dexamethasone group (2 mg/kg) (Listeria monocytogenes; Clearance Experiment 1, 2 mg/kg BID PO): count, >5 log colony count/gm spleen tis
Log colony count/gm spleen tissue in dexamethasone group (2 mg/kg) (Listeria monocytogenes; Clearance Experiment 2, 2 mg/kg): hours, >10 log colony count/gm spleen tis
lethality / condition of animals at 72 hours (Listeria monocytogenes; second experiment, dexamethasone 2 mg/kg): lethality was observed; also recorded: Moribund at 72

EC50 (human neutrophils): 0.35 nM
Molecule: interleukin 8 [IL-8]

EC50 (human neutrophils): 0.37 nM
B1: complement factor C5a (protein, UniProt P01031 678-751, looked up)
C5a anaphylatoxin: TLQKKIEEIAAKYKHSVVKKCCYDGACVNNDETCEQRAARISLGPRCIKAFTECCVVASQLRANISHKDMQLGR
modifications: C5a anaphylatoxin
notes: host-derived chemoattractant
